Assay results published in patent US5070210A, “Novel ketenimines as intermediates for insecticides” (ICI Americas Inc., priority 1990, dated 1991).

Columns and labels:
Type in all cases: in vivo
[1] = system: Tobacco Budworm [Heliothis virescens (Fabricius)] larvae; assay: Tobacco budworm contact test; settings: second-instar larvae, percent in solution, 5 days
Protocol: (§1) The compounds in Tables 1 and 2 above were tested for insecticidal activity using the following testing procedures. LC50 values, based on the results of these tests and calculated according to dosage-mortality curves, are expressed in Table 3.
Tobacco Budworm [Heliothis virescens (Fabricius)]:
(a) Contact: Test compounds were diluted in a 50-50 acetone-water solution. Cotton (Gossypium sp.) cotyledons were immersed in the test solutions for 2-3 seconds and placed on a wire screen to dry. The dried leaves were placed in petri dishes containing a moistened piece of filter paper and infested with 5 second-instar tobacco budworm larvae. The dishes were placed in a high humidity chamber for 5 days, and percent mortality of the larvae recorded. Test concentrations ranged from 0.1% downward. The LC-50 values are expressed below in Table 3 under the heading "TBW-C" in terms of percent of the test compound in the solution.

[2] = system: Cabbage Looper [Trichoplusia ni (Hubner)]; assay: Cabbage looper insecticidal test; settings: second-instar larvae, percent in solution; 3-5 days
In short: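 Steps: dilute compound in 50-50 acetone-water from 0.1% downward; immerse cotyledon pieces 2-3 s and dry; place in humid petri dishes with five second-instar larvae; record mortality at 3-5 days. Dosage-mortality curves yield LC50 as percent in solution.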

[3] = system: Tobacco Budworm [Heliothis virescens (Fabricius)] eggs; assay: Tobacco budworm egg test; settings: 2-day old eggs, percent in solution
In short: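 Mortality of dipped eggs served as read-out, recorded after untreated controls hatched and began feeding. Treatments used acetone solutions from 0.1% downward, with eggs incubated at 78° F; LC50 is expressed as percent of compound in the solution.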

[4] = system: Housefly [Musca domestica]; assay: Housefly insecticidal test; settings: μg per 25 female flies; mortality after 48 hours
In short: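 Acetone solutions (with 0.01% peanut oil) dried onto dish bottoms, then 25 female flies, 1-2 days old, caged over the residue with sugar water. Mortality scored at 48 hours; LC50 from dosage-mortality curves, in μg per 25 female flies, top level 100 μg.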

[5] = system: Beet Armyworm (Spodoptera exigua); assay: Beet armyworm insecticidal test; settings: second-instar larvae, percent in solution; five days
Protocol: as §1
Beet Armyworm (Spodoptera exigua):
Test compounds were diluted in a 50-50 acetone-water solution. Young leaves of sugar beets (Beta vulgaris) were immersed in the test solutions for 2-3 seconds and placed on a wire screen to dry. The dried leaves were placed in petri dishes containing a moistened filter paper and infested with five second-instar beet armyworm larvae. The dishes were placed in a high humidity chamber. Mortality of the larvae was recorded five days later. Test concentrations ranged from 0.1% downward. The LC-50 values are expressed below in Table 3 under the heading "BAW" in terms of percent of the test compound in solution.

[6] = system: Aster Leafhopper [Macrosteles fascifrens (Stal)]; assay: Aster leafhopper insecticidal test; settings: adults/nymphs, percent in solution; 48 hours
In short: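 Three ~10 cm oat seedlings per cup were dipped 2-3 seconds in 50-50 acetone-water compound solutions, dried, and caged with ten adult/nymph leafhoppers. Mortality was counted after 48 hours at concentrations from 0.05% downward. LC50, as percent compound in solution, came from dosage-mortality curves.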

[7] = system: Maize weevil [Sitophilus Zeamais (Motschulsky)]; assay: Maize weevil insecticidal test; settings: adult weevils, percent in solution; 48 hours
In short: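 LC50, in percent of compound in solution, was derived from dosage-mortality curves after 48 h at about 25 °C. Ten adult weevils per container fed on four corn seeds briefly immersed in acetone:water (50:50) solutions of up to 0.01% and dried.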

Clc1ccccc1N=C(OCc1cccc(Oc2ccccc2)c1)C(Cl)Cl [Compound 34]
LC50, TBW, C (TBW-C) [1]: 0.01% | LC50, CL [2]: 0.015% | LC50, TBW, E (TBW-E) [3]: > 0.1% | LC50, HF [4]: > 100 µg | LC50, BAW [5]: 0.015%

CC(C)C(=Nc1ccc(Cl)cc1)OCc1ccc(F)c(Oc2ccccc2)c1 [Compound 23]
LC50, CL [2]: 0.0005% | LC50, TBW, E (TBW-E) [3]: 0.017% | LC50, HF [4]: 5 µg | LC50, BAW [5]: 0.001%

CC(C)C(=Nc1ccc(Cl)c(Cl)c1)OCc1cccc(Oc2ccccc2)c1 [Compound 14]
LC50, CL [2]: 0.004% | LC50, LH [6]: 0.001% | LC50, MW [7]: 0.01% | LC50, HF [4]: 40 µg | LC50, BAW [5]: 0.005%

CC(C)C(=Nc1ccc(F)cc1)OCc1ccc(F)c(Oc2ccccc2)c1 [Compound 53]
LC50, TBW, C (TBW-C) [1]: 0.0025% | LC50, CL [2]: 0.0005% | LC50, TBW, E (TBW-E) [3]: 0.02% | LC50, HF [4]: 2 µg | LC50, BAW [5]: 0.003%

CC(C)C(=Nc1ccc(Cl)c(Cl)c1)OCc1cccc(Oc2ccc(F)cc2)c1 [Compound 37]
LC50, TBW, C (TBW-C) [1]: 0.0005% | LC50, CL [2]: 0.0004% | LC50, LH [6]: 0.002% | LC50, MW [7]: 0.009% | LC50, TBW, E (TBW-E) [3]: 0.014% | LC50, HF [4]: 21 µg

C#CCc1c(F)c(F)c(COC(=Nc2ccc(F)c(Cl)c2)C(C)C)c(F)c1F [Compound 520]
LC50, TBW, C (TBW-C) [1]: 0.00075% | LC50, CL [2]: > 0.1% | LC50, LH [6]: 0.0003% | LC50, MW [7]: 0.0042% | LC50, TBW, E (TBW-E) [3]: > 0.1% | LC50, HF [4]: 5.5 µg

CC(C)C(=Nc1ccc(F)c(C(F)(F)F)c1)OCc1cccc(Oc2ccc(F)cc2)c1 [Compound 120]
LC50, TBW, C (TBW-C) [1]: 0.0025% | LC50, CL [2]: 0.00015% | LC50, LH [6]: 0.0003% | LC50, MW [7]: > 0.01% | LC50, TBW, E (TBW-E) [3]: 0.04% | LC50, HF [4]: 14 µg

CC(C)C(=Nc1ccc(F)c(I)c1)OCc1ccc(F)c(Oc2ccc(Cl)cc2)c1 [Compound 326]
LC50, TBW, C (TBW-C) [1]: 0.0005% | LC50, CL [2]: 0.00015% | LC50, TBW, E (TBW-E) [3]: 0.03% | LC50, HF [4]: 25 µg | LC50, BAW [5]: 0.004%

CC(C)C(=Nc1ccc(F)c(Cl)c1)OCc1cccc(Oc2ccc(C#N)cc2)c1 [Compound 196]
LC50, TBW, C (TBW-C) [1]: 0.001% | LC50, CL [2]: 0.0006% | LC50, LH [6]: > 0.05% | LC50, MW [7]: > 0.01% | LC50, TBW, E (TBW-E) [3]: > 0.1% | LC50, HF [4]: 17 µg

CC(C)C(=Nc1ccc(F)c(Cl)c1)OCc1cccc(Oc2ccccc2)n1 [Compound 462]
LC50, TBW, C (TBW-C) [1]: 0.0025% | LC50, CL [2]: 0.001% | LC50, LH [6]: 0.001% | LC50, MW [7]: > 0.05% | LC50, TBW, E (TBW-E) [3]: 0.04% | LC50, HF [4]: 7 µg

CC(C)C(=Nc1ccc(C(F)(F)F)cc1)OCc1cccc(Oc2ccc(Cl)cc2)n1 [Compound 530]
LC50, TBW, C (TBW-C) [1]: 0.00005% | LC50, CL [2]: 0.00027% | LC50, LH [6]: 0.05% | LC50, MW [7]: > 0.01% | LC50, TBW, E (TBW-E) [3]: 0.005% | LC50, HF [4]: 9.8 µg

CCOc1ccc(N=C(OCc2cccc(Oc3ccccc3)c2)C(Cl)Cl)cc1 [Compound 138]
LC50, TBW, C (TBW-C) [1]: 0.015% | LC50, CL [2]: 0.005% | LC50, LH [6]: > 0.05% | LC50, MW [7]: > 0.01% | LC50, TBW, E (TBW-E) [3]: 0.08% | LC50, HF [4]: 19 µg

CC(C)C(=Nc1ccc(F)c(Cl)c1)OCc1cccc(Oc2ccc(Br)cc2)c1 [Compound 238]
LC50, TBW, C (TBW-C) [1]: 0.0004% | LC50, CL [2]: 0.0002% | LC50, LH [6]: > 0.05% | LC50, MW [7]: > 0.01% | LC50, TBW, E (TBW-E) [3]: 0.05% | LC50, HF [4]: 25 µg

CC(C)C(=Nc1cccc(Cl)c1)OCc1cccc(Oc2ccccc2)c1 [Compound 7]
LC50, CL [2]: 0.006% | LC50, LH [6]: 0.0002% | LC50, TBW, E (TBW-E) [3]: 0.009% | LC50, HF [4]: 8 µg | LC50, BAW [5]: 0.006%

CC(C)C(=Nc1ccc(F)cc1)OCc1cccc(Oc2ccccc2)c1 [Compound 46]
LC50, CL [2]: 0.003% | LC50, LH [6]: 0.002% | LC50, TBW, E (TBW-E) [3]: 0.016% | LC50, HF [4]: 7 µg | LC50, BAW [5]: 0.006%

CC(C)C(=Nc1ccc(F)c(Cl)c1)OCc1cccc(Oc2ccc(F)c(F)c2)n1 [Compound 531]
LC50, TBW, C (TBW-C) [1]: 0.00037% | LC50, CL [2]: > 0.1% | LC50, LH [6]: > 0.05% | LC50, MW [7]: > 0.01% | LC50, TBW, E (TBW-E) [3]: > 0.1% | LC50, HF [4]: 5 µg

O=[N+]([O-])c1cccc(N=C(OCc2cccc(Oc3ccccc3)c2)C(Cl)Cl)c1 [Compound 174]
LC50, CL [2]: 0.03% | LC50, TBW, E (TBW-E) [3]: > 0.1% | LC50, HF [4]: 17 µg | LC50, BAW [5]: 0.1%

CC(C)(C)C(=Nc1ccc(Cl)cc1)OCc1cccc(Oc2ccccc2)c1 [Compound 30]
LC50, TBW, C (TBW-C) [1]: 0.01% | LC50, CL [2]: 0.003% | LC50, LH [6]: > 0.05% | LC50, MW [7]: > 0.01% | LC50, TBW, E (TBW-E) [3]: > 0.1% | LC50, HF [4]: > 100 µg

CC(C)C(=Nc1ccc(F)c(Cl)c1)OCc1cccc(Oc2ccc(Cl)cc2)n1 [Compound 463]
LC50, CL [2]: 0.00009% | LC50, LH [6]: 0.0003% | LC50, MW [7]: 0.01% | LC50, TBW, E (TBW-E) [3]: 0.0075% | LC50, HF [4]: 8 µg | LC50, BAW [5]: 0.0024%

CC(C)C(=Nc1ccc(F)c(F)c1)OCc1cccc(Oc2ccc(F)cc2)c1 [Compound 60]
LC50, TBW, C (TBW-C) [1]: 0.0009% | LC50, CL [2]: 0.001% | LC50, LH [6]: 0.002% | LC50, MW [7]: 0.0075% | LC50, TBW, E (TBW-E) [3]: 0.017% | LC50, HF [4]: 8 µg

CC(C)C(=Nc1cccc(C(F)(F)F)c1)OCc1cccc(Oc2ccccc2)c1 [Compound 67]
LC50, CL [2]: 0.001% | LC50, LH [6]: 0.00027% | LC50, TBW, E (TBW-E) [3]: 0.01% | LC50, HF [4]: 15 µg | LC50, BAW [5]: 0.006%

CC(C)C(=Nc1ccc(F)c(C(F)(F)F)c1)OCc1ccc(F)c(Oc2ccc(Cl)cc2)c1 [Compound 297]
LC50, TBW, C (TBW-C) [1]: 0.00075% | LC50, CL [2]: 0.00027% | LC50, LH [6]: 0.0001% | LC50, MW [7]: 0.0071% | LC50, TBW, E (TBW-E) [3]: 0.025% | LC50, HF [4]: 23 µg

CC(C)C(=Nc1cccc(Cl)c1)OCc1cccc(Oc2ccc(F)cc2)c1 [Compound 194]
LC50, TBW, C (TBW-C) [1]: 0.0017% | LC50, CL [2]: 0.0005% | LC50, LH [6]: 0.0005% | LC50, MW [7]: > 0.01% | LC50, TBW, E (TBW-E) [3]: 0.04% | LC50, HF [4]: 10 µg

CCC(C)C(=Nc1ccc(F)c(Cl)c1)OCc1cccc(Oc2ccccc2)c1 (stereo not shown) [Compound 122]
LC50, CL [2]: 0.0007% | LC50, LH [6]: > 0.05% | LC50, MW [7]: > 0.01% | LC50, TBW, E (TBW-E) [3]: 0.05% | LC50, HF [4]: 37 µg | LC50, BAW [5]: 0.01%

CC(C)C(=Nc1ccc(F)cc1F)OCc1cccc(Oc2ccc(F)cc2)c1 [Compound 209]
LC50, TBW, C (TBW-C) [1]: 0.005% | LC50, CL [2]: 0.0007% | LC50, LH [6]: 0.001% | LC50, MW [7]: > 0.01% | LC50, TBW, E (TBW-E) [3]: 0.1% | LC50, HF [4]: 17 µg

CC(C)C(=Nc1ccc(I)cc1)OCc1cccc(Oc2ccc(F)cc2)c1 [Compound 234]
LC50, TBW, C (TBW-C) [1]: 0.0013% | LC50, CL [2]: 0.00045% | LC50, LH [6]: 0.003% | LC50, MW [7]: > 0.01% | LC50, TBW, E (TBW-E) [3]: 0.09% | LC50, HF [4]: 38 µg
